# What was measured:
# [1] = tested on: ischemia-reperfusion acute kidney injury; assay: ischemia-reperfusion (I/R) acute kidney injury (AKI) model in Hpa-Tg mice; format: in vivo; conditions: pretreatment; for expression level of NGAL in kidney / expression level of KIM-1 in kidney: female Hpa-Tg mice; for expression level of NGAL in kidney / NGAL expression in kidney: FIG. 11A; for expression level of KIM-1 in kidney: FIG. 11B; for NGAL expression in kidney: male Hpa-Tg mice; for kidney weight normalized to body weight (KW/BW): Hpa-Tg mice, 48 h after AKI, FIGS. 7A and 8A; for gross morphology and histopathology of kidneys: Indose 16 mg/kg i.p., Diclose 32 mg/kg i.p., male and female Hpa-Tg mice, FIGS. 9 and 10; for increase of blood urea nitrogen (BUN) following AKI / increase of serum creatinine (SCr) following AKI: male Hpa-Tg mice (trend persisted in females), 48 h from AKI induction
# Experimental: (§1) Studies utilized wild type (WT) BALB/c mice and heparanase transgenic (Hpa-Tg) mice in which the human heparanase gene is driven by a constitutive β-actin promoter (19) in a BALB/c genetic background. Animals were fed standard mouse chow and tap water ad libitum. All experiments were approved and performed according to the Technion's guidelines of the Committee for the Supervision of Animal Experiments.
# (§2) Renal ischemia was induced by clamping the renal artery of both kidneys for 30 min followed by reperfusion (I/R). The inventors tested the effectivity of “Indose” and “Diclose” before induction of ischemia (e.g., “prophylactic effect” or “pre-treatment”) or after (e.g., “treating effect” or “post-treatment”), using the dosing as disclosed hereinabove. Mice were sacrificed 48 hours later, and serum samples and kidney tissue were collected for measurements of blood creatinine and urea nitrogen levels, kidney index (kidney/body weight ratio), and for histological analysis. Portion of kidney tissues were also homogenized, and lysate samples were subjected to mRNA extraction, and expression analysis of neutrophil gelatinase-associated lipocalin (NGAL) and kidney injury molecule-1 (KIM-1).
# The inventors used the ischemia-reperfusion (I/R)-AKI model in mice. The pathogenesis of this disease was evaluated based on kidney edema, blood creatinine (Scr), and blood urea nitrogen (BUN) levels were determined 48 hours following AKI induction. Further, the inventors performed histopathological analysis, as well as expression analysis of the renal injury biomarkers neutrophil gelatinase-associated lipocalin (NGAL), kidney injury molecule-1 (KIM-1).
# AKI was induced in the absence or presence of pretreatment with Indose (16 mg/kg, i.p.) or Diclose (32 mg/kg, i.p.), respectively in Hpa-Tg mice (males and females). Untreated Hpa-Tg male and female mice that underwent sham operation served as control group. […] In male mice pretreated with Diclose and Indose, a reduction in NGAL expression was also observed (FIG. 11A). This trend persisted in female mice although the elevation in SCr and BUN following AKI was to a lesser extent.
# [2] = tested on: cerulein-induced acute pancreatitis; assay: cerulein-induced acute pancreatitis (AP) in WT and Hpa-Tg mice; format: in vivo; conditions: for tolerability: 16 and 32 mg/kg doses; for severity of AP: 16 and 32 mg/kg doses i.p., pre-treatment, FIGS. 5 and 6; for pancreato-protective effects against AP: early (pre) or post treatment, 10 mg/mouse, FIGS. 3-4
# Experimental: as §1
# Mice were injected with either cerulein (intraperitoneally, […], 5 times at 1 hour apart) (Sigma-Aldrich), or saline (0.9% NaCl) (control group). Additional groups of mice were pretreated with either Aspirin (250 mg/kg, SC) and Trehalose (2000 mg/kg, ip) alone or combined. Additional groups of animals were pre- and post-treated with Aspirlose (10 mg/mouse). […] Finally, the inventors tested the effectivity of “Indose” and “Diclose” at various concentrations against AP. Mice were sacrificed 24 hours later, and serum samples and pancreatic tissue were collected for measurements of blood amylase and lipase levels, pancreatic index (pancreas/body weight ratio), and for histological analysis. Portion of pancreas tissues were also homogenized, and lysate samples were subjected to immunoblotting.
# Pancreatic tissue samples were fixed in 10% neutral-buffered formalin progressively dehydrated in graduated alcohol and embedded in paraffin. Five-micron (5 μm) sections were stained with hematoxylin and eosin (H&E).
# [3] = acute toxicity, intraperitoneal injection in wild type mice; conditions: mouse, in vivo, ip; intraperitoneal injection, sterile water as carrier, groups of 5 wild type mice
# Experimental: (§3) Further, the inventors examined the acute toxicity of the compounds Indose and Diclose. A series of dosages: 8 mg/kg, 32 mg/kg, 64 mg/kg, 128 mg/kg, 256 mg/kg, 512 mg/kg, 768 mg/kg, 1024 mg/kg, 1,100 mg/kg, and 1,200 mg/kg were injected by intraperitoneal injection in the presence of sterile water as carrier. Each dosage was injected to a group of 5 wild type mice.
# wild type mice = assay: as above; conditions: mouse, in vivo, ip; for mortality: 500 mg/kg
# Experimental: as §3
# [4] = tested on: ischemia-reperfusion acute kidney injury; assay: ischemia-reperfusion (I/R) acute kidney injury (AKI) model in WT FVB/N mice; format: in vivo; conditions: administered short time after induction of AKI, FIGS. 13A-13C
# Experimental: as §2
# The inventors used the ischemia-reperfusion (I/R)-AKI model in mice. The pathogenesis of this disease was evaluated based on kidney edema, blood creatinine (Scr), and blood urea nitrogen (BUN) levels were determined 48 hours following AKI induction. Further, the inventors performed histopathological analysis, as well as expression analysis of the renal injury biomarkers neutrophil gelatinase-associated lipocalin (NGAL), kidney injury molecule-1 (KIM-1). […]
# [5] = tested on: cerulein-induced acute pancreatitis; conditions: previous studies; cited from earlier work
# [6] = WT and Hpa-Tg mice, cerulein treatment, FIG. 1
compound,measurement,setting,value
"O=C(Cc1ccccc1Nc1c(Cl)cccc1Cl)OC[C@H]1O[C@H](O[C@H]2O[C@H](CO)[C@@H](O)[C@H](O)[C@H]2O)[C@H](O)[C@@H](O)[C@@H]1O [Diclose, Trehalose-Dichlorofenac]",expression level of NGAL in kidney,[1],effectively reduced
same,expression level of KIM-1 in kidney,[1],effectively reduced
same,NGAL expression in kidney,[1],reduction
same,kidney weight normalized to body weight (KW/BW),[1],significantly reduced
same,gross morphology and histopathology of kidneys,[1],resembled kidneys of the ‘Sham’ control group
same,increase of blood urea nitrogen (BUN) following AKI,[1],remarkably attenuated
same,increase of serum creatinine (SCr) following AKI,[1],remarkably attenuated
same,tolerability,[2]; WT and Hpa-Tg mice,well tolerated
same,severity of AP,[2]; WT and Hpa-Tg mice,reduced the severity of AP
same,LD50,[3],780 mg/kg
same,toxicity (overall),wild type mice,low toxicity
same,mortality,wild type mice,No mortality was observed
same,"effects on AKI, post-treatment",[4],"curative effects of AKI, with the effects of Diclose being more pronounced"
"CC(C)CCC[C@@H](C)[C@H]1CC[C@H]2[C@@H]3CC[C@H]4C[C@@H](O[C@@H]5O[C@H](COS(=O)(=O)O)[C@@H](O[C@H]6O[C@H](COS(=O)(=O)O)[C@@H](O[C@H]7O[C@H](COS(=O)(=O)O)[C@@H](O[C@H]8O[C@H](COS(=O)(=O)O)[C@@H](OS(=O)(=O)O)[C@H](OS(=O)(=O)O)[C@H]8OS(=O)(=O)O)[C@H](OS(=O)(=O)O)[C@H]7OS(=O)(=O)O)[C@H](OS(=O)(=O)O)[C@H]6OS(=O)(=O)O)[C@H](OS(=O)(=O)O)[C@H]5OS(=O)(=O)O)CC[C@]4(C)[C@H]3CC[C@]12C [PG545, reference compound]",tissue edema (histopathology of pancreas),"[2]; WT and Hpa-Tg mice exposed to cerulein, FIG. 2",markedly restored
same,elevation in biochemical parameters (serum amylase and lipase),[2]; [6],markedly reduced
same,"pancreatic edema (pancreatic index, % Pancreatic weight/Body weight)",[2]; [6],markedly reduced
same,"pancreas edema and inflammation, induction of cytokines and signaling molecules following cerulein administration",[5],attenuated markedly
"Cc1c(CC(=O)OC[C@H]2O[C@H](O[C@H]3O[C@H](CO)[C@@H](O)[C@H](O)[C@H]3O)[C@H](O)[C@@H](O)[C@@H]2O)c2ccccc2n1C(=O)c1ccc(Cl)cc1 [Indose, Trehalose-Indomethacin]",expression level of NGAL in kidney,[1],effectively reduced
same,expression level of KIM-1 in kidney,[1],effectively reduced
same,NGAL expression in kidney,[1],reduction
same,kidney weight normalized to body weight (KW/BW),[1],significantly reduced
same,gross morphology and histopathology of kidneys,[1],resembled kidneys of the ‘Sham’ control group
same,increase of blood urea nitrogen (BUN) following AKI,[1],remarkably attenuated
same,increase of serum creatinine (SCr) following AKI,[1],remarkably attenuated
same,tolerability,[2]; WT and Hpa-Tg mice,well tolerated
same,severity of AP,[2]; WT and Hpa-Tg mice,reduced the severity of AP
same,LD50,[3],900 mg/kg
same,toxicity (overall),wild type mice,low toxicity
same,mortality,wild type mice,No mortality was observed
same,"effects on AKI, post-treatment",[4],curative effects
CC(=O)Oc1ccccc1C(=O)OCC1O[C@H](O[C@H]2O[C@H](COC(=O)c3ccccc3OC(C)=O)[C@@H](O)[C@H](O)[C@H]2O)[C@H](O)[C@@H](O)[C@@H]1O (some centres unmarked) [Asprilose dimer],pancreato-protective effects against AP,[2],pancreato-protective effects
CC(=O)Oc1ccccc1C(=O)OC[C@H]1O[C@H](O[C@H]2OC(CO)[C@@H](O)[C@H](O)[C@H]2O)[C@H](O)[C@@H](O)[C@@H]1O (some centres unmarked) [Asprilose mono],pancreato-protective effects against AP,[2],pancreato-protective effects

# Reference: US20250041275A1, “COMPOSITION FOR USE IN THE TREATMENT OF A DISEASE” (RAMBAM MED-TECH LTD., priority 2022, published 2025)
